We go through one molecule from paper PMC7031741 (Journal of Ginseng Research, 2018).

As usually defined, the IC50 is the midpoint of a concentration-inhibition curve. The low end stands for greater potency in that assay, the high end for weaker potency in that assay.

This test deals with ABCB1 (P-glycoprotein, P-gp) (Homo sapiens, UniProt P08183). Description: Pgp-Glo ATPase assay: inhibition of verapamil-stimulated ABCB1 ATPase. Format: biochemical.
Sequence of ABCB1 (P-glycoprotein, P-gp) (P08183 whole entry): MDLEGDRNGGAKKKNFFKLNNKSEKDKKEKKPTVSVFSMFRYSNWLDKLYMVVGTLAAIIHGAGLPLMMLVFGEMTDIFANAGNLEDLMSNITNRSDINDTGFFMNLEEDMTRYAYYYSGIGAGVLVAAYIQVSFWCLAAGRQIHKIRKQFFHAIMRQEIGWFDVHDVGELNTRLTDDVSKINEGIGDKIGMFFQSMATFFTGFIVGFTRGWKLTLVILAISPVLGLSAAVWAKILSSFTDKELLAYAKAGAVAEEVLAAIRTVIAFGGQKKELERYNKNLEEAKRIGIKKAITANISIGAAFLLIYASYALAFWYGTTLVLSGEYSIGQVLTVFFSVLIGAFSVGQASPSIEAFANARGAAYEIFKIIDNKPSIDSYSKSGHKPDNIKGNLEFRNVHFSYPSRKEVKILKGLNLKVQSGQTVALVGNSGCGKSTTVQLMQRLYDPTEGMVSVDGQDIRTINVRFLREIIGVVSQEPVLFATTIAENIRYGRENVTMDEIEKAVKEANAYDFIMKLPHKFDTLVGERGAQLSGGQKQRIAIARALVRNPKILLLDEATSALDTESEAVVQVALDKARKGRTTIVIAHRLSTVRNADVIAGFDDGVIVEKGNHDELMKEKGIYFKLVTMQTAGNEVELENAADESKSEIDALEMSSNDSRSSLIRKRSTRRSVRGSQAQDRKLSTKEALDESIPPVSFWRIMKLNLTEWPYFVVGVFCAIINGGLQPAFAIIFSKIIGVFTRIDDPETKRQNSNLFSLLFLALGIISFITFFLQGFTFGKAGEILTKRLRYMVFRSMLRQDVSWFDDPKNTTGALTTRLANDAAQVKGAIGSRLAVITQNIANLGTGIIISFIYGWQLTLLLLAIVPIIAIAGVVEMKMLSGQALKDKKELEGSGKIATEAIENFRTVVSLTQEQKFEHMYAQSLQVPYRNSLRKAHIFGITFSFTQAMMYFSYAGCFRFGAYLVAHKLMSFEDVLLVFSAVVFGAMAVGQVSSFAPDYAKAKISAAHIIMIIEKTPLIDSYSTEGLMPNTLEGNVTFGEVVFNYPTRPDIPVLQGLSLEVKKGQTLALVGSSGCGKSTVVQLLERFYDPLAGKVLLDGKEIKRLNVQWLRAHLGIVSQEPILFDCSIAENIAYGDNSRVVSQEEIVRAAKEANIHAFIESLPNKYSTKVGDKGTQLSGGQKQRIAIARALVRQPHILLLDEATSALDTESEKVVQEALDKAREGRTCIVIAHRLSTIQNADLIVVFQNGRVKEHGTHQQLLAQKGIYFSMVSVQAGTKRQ

`CC(C)=CC/C=C(\C)[C@H]1CC[C@]2(C)[C@@H]1[C@H](O)C[C@@H]1[C@@]3(C)CC[C@H](O[C@@H]4O[C@H](CO)[C@@H](O)[C@H](O)[C@H]4O[C@@H]4O[C@H](CO)[C@@H](O)[C@H](O)[C@H]4O)C(C)(C)[C@@H]3CC[C@]12C` [Rg5, Ginsenoside Rg5] returned an IC50 of 9.16 µM.
